Values of other authors, collected in patent US20250281408A1, “AMORPHOUS SOLID DISPERSIONS AND PHARMACEUTICAL COMPOSITIONS COMPRISING THE SAME” (Shenzhen Pharmacin Co., Ltd., priority 2022, published 2025).
Read-outs that look alike come from different tables or passages of the source. One block for each molecule: values may come before it.

Legend:
[1] = relative to fasted conditions, healthy subjects
[2] = fed conditions
[3] = high-fat or low-fat meal

Compound: CC(=O)O[C@H]1CC[C@@]2(C)C(=CC[C@@H]3[C@@H]2CC[C@]2(C)C(c4cccnc4)=CC[C@@H]32)C1 [Abiraterone Acetate]
- solubility in water: very poorly water soluble

Compound: COc1cc2nccc(Oc3ccc(NC(=O)C4(C(=O)Nc5ccc(F)cc5)CC4)cc3)c2cc1OC [Cabozantinib]
- solubility in aqueous solution / aqueous media: practically insoluble
- increase of AUC by a high-fat meal [1]: 57%
- increase of Cmax by a high-fat meal [1]: 41%

Compound: Cc1ccc(Nc2nccc(N(C)c3ccc4c(C)n(C)nc4c3)n2)cc1S(N)(=O)=O [pazopanib]
- solubility in aqueous media (above pH 4): practically insoluble
- solubility in aqueous media (pH 1): very slightly soluble
- increase in AUC with food [3]: approximately 2 fold
- increase in Cmax with food [3]: approximately 2 fold

Other lines, results leading:

- solubility in water: poor water solubility
Compound: CC1(C)CCC(CN2CCN(c3ccc(C(=O)NS(=O)(=O)c4ccc(NCC5CCOCC5)c([N+](=O)[O-])c4)c(Oc4cnc5[nH]ccc5c4)c3)CC2)=C(c2ccc(Cl)cc2)C1 [Venetoclax]

- solubility in aqueous solution / aqueous media: very hard to dissolve
- absolute bioavailability [2]: 37%
Compound: CCc1cc2c(cc1N1CCC(N3CCOCC3)CC1)C(C)(C)c1[nH]c3cc(C#N)ccc3c1C2=O [alectinib]

- solubility in water: very slightly soluble
Compound: O=C1[C@@H]2[C@H]3CC[C@H](C3)[C@@H]2C(=O)N1C[C@@H]1CCCC[C@H]1CN1CCN(c2nsc3ccccc23)CC1 [lurasidone]

- solubility in water: very slightly soluble
Compound: N#Cc1ccc2[nH]cc(CCCCN3CCN(c4ccc5oc(C(N)=O)cc5c4)CC3)c2c1 [vilazodone]
